Reference: ChEMBL document CHEMBL1201862, “PubChem BioAssay data set” (2004)
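Step 1: Grow cells in 96-well plates. Step 2: Expose to compound for 48 hours at 5 concentrations. Step 3: Interpolate endpoints linearly; if unreached, use highest concentration. GI50 = concentration required for 50% inhibition of growth.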 The source made the active and inactive calls. Cut-off read from the data, not from the text of the source: active = GI50 up to about 1.1 µM and inactive = higher.

Assays:
Assay in all cases: DTP human tumour cell line panel, 48 h
[1] = test system: LOX IMVI
[2] = test system: MDA-MB-231
[3] = test system: RPMI-8226
[4] = test system: HT-29
[5] = test system: CAKI-1
[6] = test system: A549
[7] = test system: SW-620
[8] = test system: HOP-92
[9] = test system: HCT-116
[10] = test system: OVCAR-3
[11] = test system: SN12C
[12] = test system: NCI-H460
[13] = test system: SK-MEL-28
[14] = test system: ACHN
[15] = test system: CCRF-CEM
[16] = test system: Hs-578T
[17] = test system: MOLT-4
[18] = test system: 786-0
[19] = test system: UO-31
[20] = test system: NCI-H226
[21] = test system: NCI-H23
[22] = test system: EKVX
[23] = test system: A498
[24] = test system: RXF 393
[25] = test system: UACC-257
[26] = test system: OVCAR-8
[27] = test system: MCF7
[28] = test system: T47D
[29] = test system: SK-MEL-2
[30] = test system: DU-145
[31] = test system: COLO 205
[32] = test system: MDA-MB-435
[33] = test system: SK-OV-3
[34] = test system: BT-549
[35] = test system: Malme-3M
[36] = test system: KM12
[37] = test system: NCI-H522
[38] = test system: M14
[39] = test system: PC-3
[40] = test system: IGROV-1
[41] = test system: SNB-75
[42] = test system: SF-539
[43] = test system: SK-MEL-5
[44] = test system: SF-295
[45] = test system: OVCAR-4
[46] = test system: MDA-N
[47] = test system: HCT-15
[48] = test system: NCI/ADR-RES
[49] = test system: TK-10
[50] = test system: OVCAR-5
[51] = test system: U-251
[52] = test system: K562
[53] = test system: UACC-62
[54] = test system: HL-60
[55] = test system: HOP-62
[56] = test system: SF-268

CN(C)CCCNc1c2ccccc2[n+]([O-])c2ccccc12
GI50 [1]: 31.2 µM (inactive)
GI50 [2]: 63.4 µM (inactive)
GI50 [3]: 46.7 µM (inactive)
GI50 [4]: 7.06 µM (inactive)
GI50 [5]: 49.4 µM (inactive)
GI50 [6]: 44.6 µM (inactive)
GI50 [7]: 39.9 µM (inactive)
GI50 [8]: 36.5 µM (inactive)
GI50 [9]: 34 µM (inactive)
GI50 [10]: 66.8 µM (inactive)
GI50 [11]: 46.1 µM (inactive)
GI50 [12]: 27.5 µM (inactive)
GI50 [13]: > 100 µM (inactive)
GI50 [14]: 49.1 µM (inactive)
GI50 [15]: 62.1 µM (inactive)
GI50 [16]: 22.6 µM (inactive)
GI50 [17]: 42.4 µM (inactive)
GI50 [18]: 40.6 µM (inactive)
GI50 [19]: 34.5 µM (inactive)
GI50 [20]: 22 µM (inactive)
GI50 [21]: 45.7 µM (inactive)
GI50 [22]: 40.6 µM (inactive)
GI50 [23]: 54.8 µM (inactive)
GI50 [24]: 47.8 µM (inactive)
GI50 [25]: 56.8 µM (inactive)
GI50 [26]: 41.9 µM (inactive)
GI50 [27]: 31.6 µM (inactive)
GI50 [28]: 78 µM (inactive)
GI50 [29]: > 100 µM (inactive)
GI50 [30]: > 100 µM (inactive)
GI50 [31]: 13.3 µM (inactive)
GI50 [32]: 50.8 µM (inactive)
GI50 [33]: 82.6 µM (inactive)
GI50 [34]: 19.1 µM (inactive)
GI50 [35]: 76.7 µM (inactive)
GI50 [36]: 39.3 µM (inactive)
GI50 [37]: 28.2 µM (inactive)
GI50 [38]: > 100 µM (inactive)
GI50 [39]: 46.5 µM (inactive)
GI50 [40]: 37.3 µM (inactive)
GI50 [41]: 51.4 µM (inactive)
GI50 [42]: 45.9 µM (inactive)
GI50 [43]: 40.1 µM (inactive)
GI50 [44]: 54 µM (inactive)
GI50 [45]: 27.1 µM (inactive)
GI50 [46]: 68.7 µM (inactive)
GI50 [47]: 41.4 µM
GI50 [48]: > 100 µM (inactive)
GI50 [49]: 31.9 µM (inactive)
GI50 [50]: 38.8 µM (inactive)
GI50 [51]: 62.8 µM (inactive)
GI50 [52]: 31.4 µM (inactive)
GI50 [53]: > 100 µM (inactive)
GI50 [54]: 51.8 µM (inactive)
GI50 [55]: 43.5 µM (inactive)
GI50 [56]: 74.6 µM (inactive)
